Laboratory results as given in patent publication US4372948A, “Derivative of saccharide and physiologically active agent containing the same” (Kureha Kagaku Kogyo Kabushiki Kaisha, priority 1980, dated 1983).

System: foot pad reaction to sheep erythrocyte
Test: Delayed-type intracutaneous reaction (foot pad reaction, cellular immunity)
Type: in vivo, mouse (ICR-JCL)
Details: same dose (250 mg/kg/day) intraperitoneally
Protocol: In order to know the influence of the present compounds on the cellular immunity, a foot pad reaction test was carried out by using ICR-JCL mice as experimental animals and sheep erythrocyte as an antigen as follows:
Sheep erythrocytes were suspended in a physiological saline solution at a concentration of 10% by volume and 0.2 ml of the suspension was injected into the caudal vein of each mouse for the primary sensitization, and after 7 days, a 40% by volume suspension of the erythrocytes in physiological saline solution was injected into the foot pad of the mouse for the challenge. The thickness of the injected foot pad was measured on the next day. One of the present compounds was administered intraperitoneally at dose of 250 mg/kg/day once a day for continued 5 days around the day of the first sensitization as a center.

SMILES: CO[C@@]12[C@H](COC(N)=O)C3=C(C(=O)C(C)=C(N)C3=O)N1C[C@@H]1N[C@@H]12 [Mitomycin C, mitomycin C]
- mortality in foot pad reaction test: died
